Entries after “also recorded” stand apart in the source; their conditions may differ.
Columns and labels:
[1] = ProGem1 dose escalation clinical study: safety and tolerability; format: in vivo, human
Experimental: Although the primary objectives of the dose escalation part of the study were to determine the Recommended Phase II Dose (RP2D) and safety profile, secondary objectives included determining the PK profile, however effective treatment of patients with a range of refractory cancers has also been observed as part of this study.
NUC-1031 was administered as a 5 to 30 minute intravenous slow bolus injection. • Schedule A: NUC-1031 was administered on days 1, 8, 15 of a 4 weekly Cycle. • Schedule B: NUC-1031 was administered on days 1, 5, 8, 12, 15, 19, of a 4 weekly Cycle.

[2] = test system: Lin^-/CD34^+/CD38^-/CD123^+ CSCs of KG1a cells; assay: Immunophenotypic identification of the leukaemic stem cell compartment in KG1a; format: cell-based, human; settings: 72 h, sub-micromolar concentrations
Experimental: (§1) KG1a cells were cultured for 72 hours in the presence of a wide range of concentrations of each nucleoside analogue and their respective ProTides. Cells were then harvested and labelled with a cocktail of anti-lineage antibodies (PE-cy7), anti-CD34 (FITC), anti-CD38 (PE) and anti-CD123 (PERCP cy5). The sub-population expressing a leukaemic stem cell (LSC) phenotype were subsequently identified and were expressed as a percentage of all viable cells left in the culture. The percentages of stem cells remaining were then plotted on a dose-response graph and the effects of the ProTides were compared with the parental nucleoside.
as §1, with “compound assayed.” for “nucleoside analogue and their respective ProTides.”, “CSC” for “leukaemic stem cell (LSC)”, “CSCs” for “stem cells”, “NUC-1031 (and its purified isomers)” for “ProTides”, “gemcitabline.” for “the parental nucleoside.”

Substance: gemcitabine-[phenyl-benzoxy-L-alaninyl)]-phosphate [NUC-1031]
- Adverse events (grade) / tolerability ([1]; Patient 004, breast cancer, 500 mg/m^2 weekly): tolerated treatment well
- Adverse events (grade) / tolerability ([1]; Patient 005, ovarian cancer, 500 mg/m^2 weekly): tolerated treatment well
- Adverse events (grade) / tolerability ([1]; Patient 007, colorectal cancer, possible linked to splenomegaly at baseline): thrombocytopaenia (G3)
- Adverse events (grade) / tolerability ([1]; Patient 008, cancer of unknown primary, 375 mg/m^2 twice weekly, pleural effusion unlikely related to study drug): transient (G3) transaminitis (ALT and AST); also recorded: pleural effusion (G3)
- Adverse events (grade) / tolerability ([1]; Patient 010, endometrial cancer, neutropenia in Cycle 1 at 750 mg/m^2): neutropenia (G3); also recorded: transient Grade 3 anaemia
- Adverse events (grade) / tolerability ([1]; Patient 011, uterine carcinosarcoma, 375 mg/m^2 twice weekly): transient neutropaenia (G3); also recorded: low haemoglobin (G2)
- Adverse events (grade) / tolerability ([1]; Patient 012, cholangiocarcinoma): tolerated treatment well
- Adverse events (grade) / tolerability ([1]; Patient 015, cancer of unknown primary, Cycle 1 Day 8): thrombocytopenia (G3); also recorded: lymphopenia (G3); also recorded: neutropenia (G2)
- Adverse events (grade) / tolerability ([1]; Patient 017, lung cancer): tolerated NUC-1031 well
- Adverse events (grade) / tolerability ([1]; Patient 021, fallopian tube cancer, 625 mg/m^2 weekly): tolerated NUC-1031 well
- Adverse events (grade) / tolerability ([1]; Patient 027, ovarian cancer, ALT after Cycle 1 Day 1 at 725 mg/m^2, a DLT): elevated ALT (G3); also recorded: mild neutropenia
- ALT ([1]; Patient 027, ovarian cancer, day 7, from 96 at baseline): 256
- Adverse events (grade) / tolerability ([1]; Patient 030, ovarian cancer, 725 mg/m^2 weekly): tolerated study drug well
- Adverse events (grade) / tolerability ([1]; Patient 036, renal carcinoma, 825 mg/m^2 weekly, thrombocytopenia following Cycle 5 Day 1): thrombocytopenia (G3); also recorded: tolerating NUC-1031 much better than their previous regimen
- Adverse events (grade) / tolerability ([1]; Patient 037, pancreatic cancer, 1,000, then 900 mg/m^2 weekly): loss of appetite, severe fatigue
- Adverse events (grade) / tolerability ([1]; Patient 038, ovarian cancer, 900 mg/m^2 weekly, main toxicity, days 3 to 4): delayed onset fatigue
- Adverse events (grade) / tolerability ([1]; Patient 040, cholangiocarcinoma, source was a stent blocked with tumour and a biliary tract cyst): infection (G3)
- Adverse events (grade) / tolerability ([1]; Patient 041, breast cancer, 900 mg/m^2 weekly, fatigue during Cycle 3, neutropenia after Cycle 1 Day 8 and Day 15): fatigue (G3); also recorded: neutropenia
- Adverse events (grade) / tolerability ([1]; Patient 042, cholangiocarcinoma, 900 mg/m^2 weekly, days 3-5): delayed onset fatigue (G2)
- Adverse events (grade) / tolerability ([1]; Patient 043, ovarian cancer, 900 mg/m^2 weekly, fatigue on days 4 and 5): delayed onset fatigue (G2); also recorded: Leg oedema developed to G3
- Adverse events (grade) / tolerability ([1]; Patient 044, lung cancer, 900, then 825 mg/m^2 weekly): G3 lung infection; also recorded: thrombocytopenia
- Adverse events (grade) / tolerability ([1]; Patient 046, adrenal carcinoma, all G3 events in Cycle 1 at 1,000 mg/m^2, fatigue (G3) and neutropenia (G2) following Cycle 8 D1): delayed onset fatigue, nausea and vomiting (all G3); also recorded: neutropenia (G2)
- Adverse events (grade) / tolerability ([1]; Patient 048, ovarian cancer, ALT, AST, neutropaenia (G2), ALP following Cycle 1 Day 1 at 1,000 mg/m^2, neutropenia (G3) in Cycle 4): ALT, (G3, a DLT); also recorded: AST and neutropaenia (G2); also recorded: ALP (G1); also recorded: neutropenia (G3); also recorded: diarrhoea following each dose
- Adverse events (grade) / tolerability ([1]; Patient 050 (202), oesophageal cancer, following Cycle 1 Day 1 at 900 mg/m^2): ALT and fatigue, both G3
- Adverse events (grade) / tolerability ([1]; Patient 051 (203), anal cancer, 900 mg/m^2 weekly): tolerated treatment well
- Adverse events (grade) / tolerability ([1]; Patient 055 (207), ovarian cancer, 825 mg/m^2 weekly): nausea and vomiting post chemotherapy
- Adverse events (grade) / tolerability ([1]; Patient 057 (209), ovarian cancer, Cycle 1 Day 15, 900 mg/m^2 weekly): anaemia and ascites both G3
- Adverse events (grade) / tolerability ([1]; Patient 058 (210), lung cancer, Cycle 1 at 825 mg/m^2, may be partly due to a congenital liver condition): G3 transaminitis (ALT), a DLT
- Adverse events (grade) / tolerability ([1]; Patient 059 (211), cervical cancer, thrombocytopenia in Cycle 1 at 825 mg/m^2, fatigue during Cycle 3): thrombocytopenia (G3); also recorded: fatigue (G3)
- Adverse events (grade) / tolerability ([1]; Patient 060 (212), pancreatic cancer, 825 mg/m^2 weekly, required new stent): ALP, AST, ALT, all G3
- Adverse events (grade) / tolerability ([1]; Patient 061 (213), colorectal cancer, 825 mg/m^2 weekly): no nausea or vomiting during treatment
- Adverse events (grade) / tolerability ([1]; Patient 063 (215), ovarian cancer, fatigue on Cycle 3): fatigue (G3); also recorded: anaemia and neutropenia
- Adverse events (grade) / tolerability ([1]; Patient 067 (219), osteosarcoma, 825 mg/m^2 weekly, neutropenia towards the end of each Cycle): neutropenia G2; also recorded: Tolerated study drug well
- Adverse events (grade) / tolerability ([1]; Patient 069 (221), colorectal cancer, G4/G3 during Cycle 3 at 825 mg/m^2, G3 following Cycle 4 D1 at 750, G2 at C5 D8): neutropenia (G4); also recorded: neutropenia and leukopenia, G3; also recorded: neutropenia and leukopenia, G2
- targeting of CSCs compared with Gemcitabine [2]: preferential targeting of CSCs
